Tested on: LG0567-F671-PDC complex spheroids viability
Experiment: Anticancer human tumor LG0567-F671-PDC patient-derived lung adenocarcinoma cell line growth inhibition [RAS]
Details: for viability, T/C: stronger effect = lower value
Procedure, shortened: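 Agents were tested in combination matrices in half-log decrements from a top concentration at or near clinical Cmax (10 microM if undetermined). Targets were multi-cell spheroids of tumour lines plus HUVEC and MSC stromal cells.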

[1] = curve of first compound, second compound 0.0316 µM
[2] = curve of first compound, second compound 0.1 µM
[3] = curve of first compound, second compound 0.316 µM
[4] = curve of first compound, second compound 1 µM
[5] = second compound 0.0316 µM, first compound 0.0316 µM
[6] = second compound 0.0316 µM, first compound 0.1 µM
[7] = second compound 0.0316 µM, first compound 0.316 µM
[8] = second compound 0.0316 µM, first compound 1 µM
[9] = second compound 0.0316 µM, first compound 3.16 µM
[10] = second compound 0.0316 µM, first compound 10 µM
[11] = second compound 0.1 µM, first compound 0.0316 µM
[12] = second compound 0.1 µM, first compound 0.1 µM
[13] = second compound 0.1 µM, first compound 0.316 µM
[14] = second compound 0.1 µM, first compound 1 µM
[15] = second compound 0.1 µM, first compound 3.16 µM
[16] = second compound 0.1 µM, first compound 10 µM
[17] = second compound 0.316 µM, first compound 0.0316 µM
[18] = second compound 0.316 µM, first compound 0.1 µM
[19] = second compound 0.316 µM, first compound 0.316 µM
[20] = second compound 0.316 µM, first compound 1 µM
[21] = second compound 0.316 µM, first compound 3.16 µM
[22] = second compound 0.316 µM, first compound 10 µM
[23] = second compound 1 µM, first compound 0.0316 µM
[24] = second compound 1 µM, first compound 0.1 µM
[25] = second compound 1 µM, first compound 0.316 µM
[26] = second compound 1 µM, first compound 1 µM
[27] = second compound 1 µM, first compound 3.16 µM
[28] = second compound 1 µM, first compound 10 µM
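Note: spheroids exposed to compound for seven days before readout.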
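Throughout, for IC50: luminescence signal used as a proxy for viable cells.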

SMILES: CC(C)NCC(C(=O)N1CCN(c2ncnc3c2C(C)CC3O)CC1)c1ccc(Cl)cc1 (stereo not drawn) + C=CC(=O)N1CCN(c2nc(OCC3CCCN3C)nc3c(F)c(-c4nc(N)cc(C)c4C(F)(F)F)c(Cl)cc23)C(C)C1
- IC50 (curve of first compound, second compound 0.00316 µM): < 31.6 nM
- IC50 (curve of first compound, second compound 0.01 µM): < 31.6 nM
- IC50 [1]: < 31.6 nM
- IC50 [2]: < 31.6 nM
- IC50 [3]: < 31.6 nM
- IC50 [4]: < 31.6 nM
- viability, T/C (second compound 0.00316 µM, first compound 0.0316 µM): 16.6%
- viability, T/C (second compound 0.00316 µM, first compound 0.1 µM): 18.9%
- viability, T/C (second compound 0.00316 µM, first compound 0.316 µM): 14.9%
- viability, T/C (second compound 0.00316 µM, first compound 1 µM): 10.8%
- viability, T/C (second compound 0.00316 µM, first compound 3.16 µM): 10.3%
- viability, T/C (second compound 0.00316 µM, first compound 10 µM): 9%
- viability, T/C (second compound 0.01 µM, first compound 0.0316 µM): 17%
- viability, T/C (second compound 0.01 µM, first compound 0.1 µM): 11.4%
- viability, T/C (second compound 0.01 µM, first compound 0.316 µM): 10.8%
- viability, T/C (second compound 0.01 µM, first compound 1 µM): 9.98%
- viability, T/C (second compound 0.01 µM, first compound 3.16 µM): 8.68%
- viability, T/C (second compound 0.01 µM, first compound 10 µM): 8.55%
- viability, T/C [5]: 13.8%
- viability, T/C [6]: 13.7%
- viability, T/C [7]: 10.3%
- viability, T/C [8]: 8.15%
- viability, T/C [9]: 7.81%
- viability, T/C [10]: 7.64%
- viability, T/C [11]: 12.6%
- viability, T/C [12]: 13.6%
- viability, T/C [13]: 11.4%
- viability, T/C [14]: 8.66%
- viability, T/C [15]: 8.46%
- viability, T/C [16]: 7.32%
- viability, T/C [17]: 14.9%
- viability, T/C [18]: 11.9%
- viability, T/C [19]: 11.5%
- viability, T/C [20]: 9.81%
- viability, T/C [21]: 9.16%
- viability, T/C [22]: 7.21%
- viability, T/C [23]: 15.6%
- viability, T/C [24]: 11.9%
- viability, T/C [25]: 12.7%
- viability, T/C [26]: 9.59%
- viability, T/C [27]: 10%
- viability, T/C [28]: 9.16%

SMILES: CCN1CCN(Cc2ccc(Nc3ncc(F)c(-c4cc(F)c5nc(C)n(C(C)C)c5c4)n3)nc2)CC1 + CCn1c(-c2cc(N3CCN(C)CC3)cnc2C(C)OC)c2c3cc(ccc31)-c1csc(n1)CC(NC(=O)C1CC1C)C(=O)N1CCCC(N1)C(=O)OCC(C)(C)C2
- IC50 (curve of first compound, second compound 0.000949 µM): < 3.16 nM
- IC50 (curve of first compound, second compound 0.003 µM): < 3.16 nM
- IC50 (curve of first compound, second compound 0.00949 µM): < 3.16 nM
- IC50 (curve of first compound, second compound 0.03 µM): < 3.16 nM
- IC50 (curve of first compound, second compound 0.0949 µM): < 3.16 nM
- IC50 (curve of first compound, second compound 0.3 µM): < 3.16 nM
- viability, T/C (second compound 0.000949 µM, first compound 0.00316 µM): 27.4%
- viability, T/C (second compound 0.000949 µM, first compound 0.01 µM): 24.3%
- viability, T/C (second compound 0.000949 µM, first compound 0.0316 µM): 23.6%
- viability, T/C (second compound 0.000949 µM, first compound 0.1 µM): 23.9%
- viability, T/C (second compound 0.000949 µM, first compound 0.316 µM): 27.4%
- viability, T/C (second compound 0.000949 µM, first compound 1 µM): 30.4%
- viability, T/C (second compound 0.003 µM, first compound 0.00316 µM): 11.5%
- viability, T/C (second compound 0.003 µM, first compound 0.01 µM): 11.9%
- viability, T/C (second compound 0.003 µM, first compound 0.0316 µM): 10.8%
- viability, T/C (second compound 0.003 µM, first compound 0.1 µM): 11.4%
- viability, T/C (second compound 0.003 µM, first compound 0.316 µM): 14.7%
- viability, T/C (second compound 0.003 µM, first compound 1 µM): 21.5%
- viability, T/C (second compound 0.00949 µM, first compound 0.00316 µM): 6.37%
- viability, T/C (second compound 0.00949 µM, first compound 0.01 µM): 6.88%
- viability, T/C (second compound 0.00949 µM, first compound 0.0316 µM): 6.24%
- viability, T/C (second compound 0.00949 µM, first compound 0.1 µM): 6.47%
- viability, T/C (second compound 0.00949 µM, first compound 0.316 µM): 7.63%
- viability, T/C (second compound 0.00949 µM, first compound 1 µM): 14.4%
- viability, T/C (second compound 0.03 µM, first compound 0.00316 µM): 4.36%
- viability, T/C (second compound 0.03 µM, first compound 0.01 µM): 4.91%
- viability, T/C (second compound 0.03 µM, first compound 0.0316 µM): 4.15%
- viability, T/C (second compound 0.03 µM, first compound 0.1 µM): 4.09%
- viability, T/C (second compound 0.03 µM, first compound 0.316 µM): 5.04%
- viability, T/C (second compound 0.03 µM, first compound 1 µM): 8.84%
- viability, T/C (second compound 0.0949 µM, first compound 0.00316 µM): 3.5%
- viability, T/C (second compound 0.0949 µM, first compound 0.01 µM): 3.29%
- viability, T/C (second compound 0.0949 µM, first compound 0.0316 µM): 2.92%
- viability, T/C (second compound 0.0949 µM, first compound 0.1 µM): 2.88%
- viability, T/C (second compound 0.0949 µM, first compound 0.316 µM): 3.8%
- viability, T/C (second compound 0.0949 µM, first compound 1 µM): 6%
- viability, T/C (second compound 0.3 µM, first compound 0.00316 µM): 3.07%
- viability, T/C (second compound 0.3 µM, first compound 0.01 µM): 2.94%
- viability, T/C (second compound 0.3 µM, first compound 0.0316 µM): 2.53%
- viability, T/C (second compound 0.3 µM, first compound 0.1 µM): 2.95%
- viability, T/C (second compound 0.3 µM, first compound 0.316 µM): 3.25%
- viability, T/C (second compound 0.3 µM, first compound 1 µM): 4.38%

SMILES: CCc1c2c(nc3ccc(O)cc13)-c1cc3c(c(=O)n1C2)COC(=O)[C@]3(O)CC
- viability, T/C (compound 0.000949 µM): 93.3% [middle of 4 runs]
- viability, T/C (compound 0.003 µM): 79% [middle of 4 runs]
- viability, T/C (compound 0.00949 µM): 65.1% [middle of 4 runs]
- viability, T/C (compound 0.03 µM): 48.5% [middle of 4 runs]
- viability, T/C (compound 0.0949 µM): 27.1% [middle of 4 runs]
- viability, T/C (compound 0.3 µM): 7.59% [middle of 4 runs]
- IC50 (curve of compound): 26.9 nM [middle of 4 runs]

SMILES: CCC(CC)c1cc(NC2CCC(N)C2)n2nccc2n1 (stereo not drawn) + C#Cc1c(F)ccc2cc(O)cc(-c3ncc4c(N5CC6CCC(C5)N6)nc(OCC56CCCN5CC(F)C6)nc4c3F)c12
- IC50 [1]: 1900 nM
- IC50 [2]: 1710 nM
- IC50 [3]: 1250 nM
- IC50 [4]: < 31.6 nM
- IC50 (curve of first compound, second compound 3.16 µM): < 31.6 nM
- IC50 (curve of first compound, second compound 10 µM): < 31.6 nM
- viability, T/C [5]: 102%
- viability, T/C [6]: 97.2%
- viability, T/C [7]: 111%
- viability, T/C [8]: 119%
- viability, T/C [9]: 4.67%
- viability, T/C [10]: 0.25%
- viability, T/C [11]: 78.4%
- viability, T/C [12]: 83.5%
- viability, T/C [13]: 92.2%
- viability, T/C [14]: 104%
- viability, T/C [15]: 4.32%
- viability, T/C [16]: 0.47%
- viability, T/C [17]: 60.3%
- viability, T/C [18]: 57.3%
- viability, T/C [19]: 59.7%
- viability, T/C [20]: 67.8%
- viability, T/C [21]: 3.78%
- viability, T/C [22]: 0.39%
- viability, T/C [23]: 32.4%
- viability, T/C [24]: 37%
- viability, T/C [25]: 43.4%
- viability, T/C [26]: 38.2%
- viability, T/C [27]: 3.47%
- viability, T/C [28]: 0.38%
- viability, T/C (second compound 3.16 µM, first compound 0.0316 µM): 18.2%
- viability, T/C (second compound 3.16 µM, first compound 0.1 µM): 17.8%
- viability, T/C (second compound 3.16 µM, first compound 0.316 µM): 20.2%
- viability, T/C (second compound 3.16 µM, first compound 1 µM): 17.1%
- viability, T/C (second compound 3.16 µM, first compound 3.16 µM): 2.86%
- viability, T/C (second compound 3.16 µM, first compound 10 µM): 0.37%
- viability, T/C (second compound 10 µM, first compound 0.0316 µM): 10.3%
- viability, T/C (second compound 10 µM, first compound 0.1 µM): 11.3%
- viability, T/C (second compound 10 µM, first compound 0.316 µM): 10.3%
- viability, T/C (second compound 10 µM, first compound 1 µM): 9.32%
- viability, T/C (second compound 10 µM, first compound 3.16 µM): 1.25%
- viability, T/C (second compound 10 µM, first compound 10 µM): 0.15%
